The subject of data set [1] is FaDu human head and neck cancer. Nature of the data set: Antitumor activity in subcutaneous FaDu xenograft mice. Format: in vivo. The method, then:
In the studies shown in FIG. 8, immunosuppressed mice with established subcutaneous FaDu human head and neck cancer were given indicated amount of hand grounded Compound 1 with Crystal Form 1, or vehicle control orally (po). Compound 1 was formulated in […]™. All regimens were administered daily (qd). Tumor sizes were evaluated periodically during treatment.
In the study shown in FIG. 9, immunosuppressed mice with established subcutaneous FaDu human head and neck cancer were given 100 mg/kg of micronized Compound 1 produced with the synthetic process described in FIGS. 5A and 5B (first crop), or vehicle control orally (po). Compound 1 was formulated in […]™. All regimens were administered daily (qd). Tumor sizes were evaluated periodically during treatment. Form 2 has been successfully manufactured by a current good manufacturing practice (cGMP) process and received approval from the FDA and Health Canada to be used in clinical trials.
Form 3 can only be generated from Form 1 using a specially designed slurry process described herein. […] In the study shown in FIG. 10, immunosuppressed mice with established subcutaneous FaDu human head and neck cancer were given 200 mg/kg of Compound 1 with hand grounded Crystal Form 1 or Form 3, or vehicle control orally (po). Compound 1 was formulated in gelucire. All regimens were administered daily (qd). Tumor sizes were evaluated periodically during treatment. This polymorph has been successfully manufactured by a cGMP process and received approval from FDA and Health Canada to be used in clinical trials.
The anti-tumor activity of particles of Compound 1 with different particle size ranges is illustrated in FIG. 15, and the pharmacokinetic data for particles of Compound 1 with different particle size ranges is illustrated in FIGS. 16-18. In the study shown in FIG. 15, immunosuppressed mice with established subcutaneous FaDu human head and neck cancer were given indicated amount of Compound 1 with indicated particle size, or vehicle control orally (po). All regimens were administered daily (qd). Tumor size was evaluated periodically.
In an experiment, a formulation of Compound 1 particles sieved to 160 micron was tested in the model of immunosuppressed mice with established subcutaneous xenograft FaDu human head and neck cancer. The pharmaceutical composition was formulated as 80 mg/ml in 9% Gelucire, 20% Vitamin E TPGS (Table 3). […] All regimens were administered daily (qd).
In an experiment, Compound 1 crystals were milled to a median particle size of about 20 micron. […] All regimens were administered daily (qd).
FaDu human head and neck cancer cells were inoculated subcutaneously into female athymic nude mice (6×10^6 cells/mouse) and allowed to form palpable tumors. When the tumors reached approximately 100 mm^3, the animals were treated orally (po) with Compound 1 at 100 mg/kg or vehicle control daily. Compound 1 was formulated at 10 mg/ml in 20% gelucire. Tumors and bodyweights were measured throughout treatment (FIG. 15).
Daily examinations into the health status of each animal were also conducted. Body weights were checked every three days. Food and water was supplied daily according to the animal husbandry procedures of the facility. Treatment producing>20% lethality and or >20% net body weight loss were considered toxic. Results are expressed as mean tumor volume (mm^3)±SE. P Values<0.05 are considered to be statistically relevant.
Male or female athymic nude mice 4-5 weeks (Charles River Laboratories, Wilmington, Mass.), were acclimated to the animal housing facility for at least 1 week before study initiation. […]

The next data set relates to advanced solid tumors. Kind of data set: Phase I clinical trial: tumor response (RECIST 1.1) and progression free survival. As to conditions: clinical trials. It is filed as in vivo, human. The text has this: As of Feb. 7, 2011, 42 cancer patients with various advanced solid tumors who have failed chemotherapies were enrolled in the study.
Of the 42 patients dosed, 24 were evaluable for tumor response as of Feb. 7, 2011; 16 (16/24 evaluable patients) achieved stable disease (8 to 75+ weeks).

Data set [2] is described as follows: Phase I clinical trial: plasma pharmacokinetics. It is filed as in vivo, human. The following applies: clinical trials (FIG. 11, FIG. 12). Here is the method:
A favorable PK profile with oral bid dosing was also observed. The plasma concentration reached several folds over efficacious concentration (in vitro IC50).
In yet another suitable dosing regimen, Compound 1 is administered with food which delays the Tmax (Table 13).

“Also recorded” adds a separate entry of the source.

On to `CC(=O)c1cc2c(o1)C(=O)c1ccccc1C2=O` [Crystal Form 1, 2-acetyl-4H,9H-naphtho[2,3-b]furan-4,9-dione], for which the anti-tumor activity entry in data set [1] (hand grounded Crystal Form 1 in GELUCIRE, po qd (FIG. 8)) is “limited anti-tumor activity; also recorded: low anti-tumor activity”. `CC(=O)c1cc2c(o1)C(=O)c1ccccc1C2=O` [Crystal Form 2, 2-acetyl-4H,9H-naphtho[2,3-b]furan-4,9-dione]: the “anti-tumor activity in cancer patients” value with advanced solid tumors was “strong signs of anti-tumor activity”. Also, in data set [2], the “pharmacokinetics in cancer patients” value is “desirable pharmacokinetics”. Besides, the anti-tumor activity entry in data set [1] (100 mg/kg micronized (first crop) in GELUCIRE, po qd (FIG. 9)) is “potent anti-tumor activity”.

On to `CC(=O)c1cc2c(o1)C(=O)c1ccccc1C2=O` [Crystal Form 3, 2-acetyl-4H,9H-naphtho[2,3-b]furan-4,9-dione], for which the antitumor activities result in data set [1] (200 mg/kg hand grounded, in gelucire, po qd (FIG. 10)) is given as “potent antitumor activities”.

Source of the values: patent US9084766B2, “Compounds and compositions for targeting cancer stem cells” (Boston Biomedical, Inc., priority 2010, dated 2015).
